Measurements taken from US20260001853A1, “ASCORBIC ACID DERIVATIVE OR SALT THEREOF, AND COSMETIC THEREOF” (SEIWA KASEI COMPANY, LIMITED, priority 2022, published 2026).

Key:
[1] = Stability test (residual rate by HPLC, odor, coloring); assay type: physicochemical; details: 1% aqueous solution; for Coloring / Odor: total score of 10 panelists
Experimental: With a dilute potassium hydroxide aqueous solution, 1% aqueous solution of each test sample was adjusted to pH 6, placed in a 50 mL screw tube, sealed, […], and then subjected to HPLC measurement (using a liquid chromatograph manufactured by Shimadzu Corporation) to determine the residual rate from the peak area. The residual rate, odor, and coloring degree were evaluated according to the following methods and criteria.
Residual rate: • ⊚: 90% or more • ◯: 80% or more, less than 90% • Δ: 60% or more, less than 80% • x: 20% or more, less than 60% • xx: Less than 20%
Evaluation was made by 10 panelists according to the following criteria. • 3: Almost odorless • 2: There is a slight strange odor. • 1: A strong odor is detected.
Based on the evaluation results, the following classification was made: • ⊚: Total score of 10 panelists is 25 or more • ◯: Total score of 10 panelists is 20-24 • Δ: Total score of 10 panelists is 16-19 • x: The total score of 10 panelists is 15 or less
Evaluation was made by 10 panelists according to the following criteria. • 3: Almost no change compared to immediately after preparation. • 2: Color changes compared to immediately after preparation. • 1: Strongly colored compared to immediately after preparation.
Based on the evaluation results, the following classification was made: • ◯: Total score of 10 panelists is 25 or more • Δ: Total score of 10 panelists is 16-24 • x: The total score of 10 panelists is 15 or less

[2] = system: Normal human dermal fibroblasts; test: Collagen production promoting effect (ELISA of supernatant); assay type: cell-based; details: amount of collagen produced, % with control group taken as 100%; sample at 10 mmol/L or less, 48 hours, N=3
Experimental: Normal human dermal fibroblasts were prepared in D-MEM containing 5% (v/v) fetal bovine serum to a cell density of […] cells/well, and pre incubated on a 96-well plate for 24 hours. After removing the medium, samples prepared to a predetermined concentration in D-MEM containing 5% (v/v) fetal bovine serum were added to each well and cultured for 48 hours. After completion of the culture, the amount of free collagen in the supernatant was quantified by ELISA method. The measurement was performed with N=3.
The amount of collagen produced when the samples were measured at a concentration of 10 mmol/L or less was compared with that of the control group, and the results (% values when the control group is taken as 100%) are shown in Tables 15 to 17 based on the following criteria. • <100%: ± • 100-120%: + • 120%: ++

[3] = system: B16 melanoma 4A5 cells; test: Melanin production inhibitory effect (theophylline-induced melanin production); assay type: cell-based, mouse; details: melanin production inhibition rate, sample at a concentration of 10 mM or less, 3 days culture, theophylline 1 mmol/L, N=4
Experimental: As a test of the whitening effect, the effect on theophylline-induced melanin production in B16 melanoma 4A5 cells was evaluated for the ascorbic acid derivatives of the present invention according to the following procedure. A similar evaluation was also performed for a known ascorbic acid derivative for comparison. The results are shown in Tables 9 to 11. • (1) B16 mouse melanoma 4A5 cells were seeded in a 48-well plate at a cell density of 8.0×10^3 cells/well. • (2) After culturing for 24 hours in Dulbecco's modified Eagle's medium (manufactured by SIGMA, hereinafter abbreviated as “D-MEM”) containing 10% fetal bovine serum, the medium was replaced with D-MEM containing 10% fetal bovine serum containing theophylline (final concentration 1 mmol/L) and a specified concentration of a sample. • (3) After culturing for 3 days in the presence of the sample, the medium was removed using an aspirator, distilled water was added, and the cells were disrupted by ultrasonication. • (4) The amount of protein was then quantified using a BCA protein assay kit (manufactured by PIERCE), and the amount of melanin produced was measured by an alkali solubilization method. Sodium hydroxide was added to the cell lysate to a final concentration of 1 mol/L, and the solution was dissolved by heating (60° C., 30 minutes), thereafter the absorbance at 405 nm was measured using a microplate reader. The amount of melanin was calculated from a calibration curve prepared using synthetic melanin (SIGMA) as a standard. The amount of melanin per unit protein was calculated by dividing the amount of melanin by the amount of protein. • (5) The melanin production inhibition rate was calculated using the following formula.
[In the formula, A represents the amount of melanin per unit protein (g/g) when the sample was added, B represents the amount of melanin per unit protein (g/g) in the normal group, and C represents the amount of melanin per unit protein (g/g) in the control group.]
The melanin production inhibition rate when the sample was measured at a concentration of 10 mM or less is expressed as follows. The measurement was performed with N=4. • <20%: ± • 20-40%: + • 40-60%: ++ • 60-100%: +++

[4] = system: Normal human dermal fibroblasts (NHDF); test: Hyaluronic acid production promoting effect (ELISA of supernatant); assay type: cell-based; details: amount of hyaluronic acid produced, % with control group taken as 100%; sample at 10 mmol/L or less, 48 hours, N=3
Experimental: Normal human dermal fibroblasts (NHDF) were prepared in D-MEM containing 5% (v/v) fetal bovine serum to a cell density of 2.5× 10^4 cells/well, and then pre-incubated on a 96-well plate for 24 hours. After removing the medium, samples prepared in serum-free D-MEM were added to each well and cultured for 48 hours. After the culture was completed, the amount of hyaluronic acid in the supernatant was quantified by ELISA method. The measurement was performed with N=3.
The amount of hyaluronic acid produced when the samples were measured at a concentration of 10 mmol/L or less was compared with that of the control group, and the results (% values when the control group is taken as 100%) are shown in Tables 18 to 20 based on the following criteria. • <100%: ± • 100-120%: + • 120-150%: ++ • 150%: +++

[5] = pH 6, stored at 50° C., two weeks later

| SMILES | Collagen production promoting effect [2] | Melanin production inhibition effect [3] | Hyaluronic acid production promoting effect [4] | other results |
| --- | --- | --- | --- | --- |
| O=C1O[C@H]([C@@H](O)CO)C(O)=C1O [Ascorbic acid] | – | – | – | Residual rate ([1]; pH 6, 50° C., initial): ⊚ (⊚: 90% or more); Coloring ([1]; pH 6, 50° C., initial): ◯ (◯: Total score of 10 panelists is 25 or more); Odor ([1]; pH 6, 50° C., initial): ◯ (◯: Total score of 10 panelists is 20-24); Residual rate [1, 5]: Δ (Δ: 60% or more, less than 80%); Coloring [1, 5]: Δ (Δ: Total score of 10 panelists is 16-24); Odor [1, 5]: Δ (Δ: Total score of 10 panelists is 16-19) |
| CCCCOC1=C(OCC(C)(C)O)C(=O)O[C@@H]1[C@@H](O)CO [Synthesis Example 4, 2-O-(2-hydroxyisobutyl)-3-O-butylascorbic acid] | ++ (120%: ++) | – | – | – |
| CCCCCCOC1=C(OCC(C)(C)O)C(=O)O[C@@H]1[C@@H](O)CO [Synthesis Example 5, 2-O-(2-hydroxyisobutyl)-3-O-hexyl ascorbic acid] | ++ (120%: ++) | + (20-40%: +) | – | – |
| CCCCCCCCOC1=C(OCC(C)(C)O)C(=O)O[C@@H]1[C@@H](O)CO [Synthesis Example 6, 2-O-(2-hydroxyisobutyl)-3-O-octyl ascorbic acid] | ++ (120%: ++) | +++ (60-100%: +++) | – | – |
| CCCCCCCCCCOC1=C(OCC(C)(C)O)C(=O)O[C@@H]1[C@@H](O)CO [Synthesis Example 7, 2-O-(2-hydroxyisobutyl)-3-O-decyl ascorbic acid] | ++ (120%: ++) | +++ (60-100%: +++) | – | – |
| CCCCCCCCCCCCCCOC1=C(OCC(C)(C)O)C(=O)O[C@@H]1[C@@H](O)CO [Synthesis Example 9, 2-O-(2-hydroxyisobutyl)-3-O-tetradecyl ascorbic acid] | ++ (120%: ++) | ++ (40-60%: ++) | +++ (150%: +++) | – |
| CCCCCCCCCCCCCCCCOC1=C(OCC(C)(C)O)C(=O)O[C@@H]1[C@@H](O)CO [Synthesis Example 10, 2-O-(2-hydroxyisobutyl)-3-O-hexadecylascorbic acid] | – | + (20-40%: +) | – | – |
| C=CCOC1=C(OCC(C)(C)O)C(=O)O[C@@H]1[C@@H](O)CO [Synthesis Example 11, 2-O-(2-hydroxyisobutyl)-3-O-allylascorbic acid] | ++ (120%: ++) | +++ (60-100%: +++) | ++ (120-150%: ++) | – |
| CC(C)(O)COC1=C(OCc2ccccc2)[C@@H]([C@@H](O)CO)OC1=O [Synthesis Example 12, 2-O-(2-hydroxyisobutyl)-3-O-benzyl ascorbic acid] | ++ (120%: ++) | +++ (60-100%: +++) | +++ (150%: +++) | – |
| CC(C)(O)COC1=C(OCC(O)CO)[C@@H]([C@@H](O)CO)OC1=O (stereo partly shown) [Synthesis Example 13, 2-O-(2-hydroxyisobutyl)-3-O-glyceryl ascorbic acid] | ++ (120%: ++) | ++ (40-60%: ++) | ++ (120-150%: ++) | – |
| CCCCC(CC)COCC(O)COC1=C(OCC(C)(C)O)C(=O)OC1C(O)CO (stereo not shown) [Synthesis Example 15, 2-O-(2-hydroxyisobutyl)-3-O-(2-hydroxy-3-O-ethylhexyl) ascorbic acid] | ++ (120%: ++) | + (20-40%: +) | – | – |
| CCCCCCCCCCCCOCC(O)COC1=C(OCC(C)(C)O)C(=O)OC1C(O)CO (stereo not shown) [Synthesis Example 16, 2-O-(2-hydroxyisobutyl)-3-O-(2-hydroxy-3-O-dodecyl) ascorbic acid] | – | + (20-40%: +) | ++ (120-150%: ++) | – |
| CCCCOC1=C(OCC(C)(C)O)[C@@H]([C@@H](O)CO)OC1=O [Synthesis Example 19, 2-O-butyl-3-O-(2-hydroxyisobutyl) ascorbic acid] | ++ (120%: ++) | + (20-40%: +) | – | – |
| CCCCCCOC1=C(OCC(C)(C)O)[C@@H]([C@@H](O)CO)OC1=O [Synthesis Example 20, 2-O-hexyl-3-O-(2-hydroxyisobutyl) ascorbic acid] | ++ (120%: ++) | ++ (40-60%: ++) | – | – |
| CCCCCCCCCCOC1=C(OCC(C)(C)O)[C@@H]([C@@H](O)CO)OC1=O [Synthesis Example 22, 2-O-decyl-3-O-(2-hydroxyisobutyl) ascorbic acid] | – | ++ (40-60%: ++) | – | – |
| CC(C)(O)COC1=C(OCC(O)CO)C(=O)O[C@@H]1[C@@H](O)CO (stereo partly shown) [Synthesis Example 28, 2-O-glyceryl-3-O-(2-hydroxyisobutyl) ascorbic acid] | – | + (20-40%: +) | ++ (120-150%: ++) | – |
| CCCCOCC(O)COC1=C(OCC(C)(C)O)C(C(O)CO)OC1=O (stereo not shown) [Synthesis Example 29, 2-O-(2-hydroxy-3-O-butyl)-3-O-(2-hydroxyisobutyl) ascorbic acid] | ++ (120%: ++) | – | – | – |
| CCCCC(CC)COCC(O)COC1=C(OCC(C)(C)O)C(C(O)CO)OC1=O (stereo not shown) [Synthesis Example 30, 2-O-(2-hydroxy-3-O-ethylhexyl)-3-O-(2-hydroxyisobutyl) ascorbic acid] | – | + (20-40%: +) | +++ (150%: +++) | – |
